Reference: patent US11918675B2, “Oral care compositions” (priority 2019, dated 2024)

Assays:
Format in all cases: cell-based
Whole human saliva [1] = assay: In vitro malodor study: fermentation measured by pH; settings: pooled whole human saliva 2% in growth medium, incubated overnight, n=6
Experimental: (§1) An in vitro malodor study was conducted to evaluate the effect of various combinations of inulin and xylitol with zinc on oral malodor. Malodor is a combination of hydrogen sulfide and other volatile compounds. Microbial growth as measured by OD610, and fermentation, as measured by pH (confounding variables that impact oral malodor) were also evaluated.
(§2) Whole human saliva was collected from four donors, pooled and suspended in growth medium at a 2% final concentration. Stock, simple solutions of inulin, xylitol, and zinc citrate were prepared in growth medium and incorporated according to the experiment design specified in Table 3 (below). Treatment suspensions were incubated overnight in sterilized headspace vials.
The pH was measured using a standard pH meter by following validated procedures. Statistical significance of differences for all parameters was determined using one-way ANOVA test at 95% confidence level with a Tukey pairwise comparison test. Microbial growth and pH were used to stratify the treatments for hydrogen sulfide statistical analysis.

Whole human saliva [2] = assay: In vitro malodor study: hydrogen sulfide in headspace by SIFT-MS; settings: pooled whole human saliva 2% in growth medium, incubated overnight, n=6; groups stratified by growth and pH
Experimental: as §1, §2
(§3) Malodor (i.e., hydrogen sulfide and other volatile compounds) in the culture vial headspace was quantified using validated procedures on Voice200ultra SIFT-MS (Syft Technologies, Christchurch, New Zealand). Following SIFT-MS analysis, microbial growth was quantified using optical density at λ=610 nm.
Hydrogen sulfide in headspace of salivary inoculum was quantified using SIFT-MS validated procedure.

Whole human saliva [3] = assay: In vitro malodor study: microbial growth by OD610; settings: pooled whole human saliva 2% in growth medium, incubated overnight, n=6
Experimental: as §1, §2, §3

| Structure (SMILES) | pH, Mean (Whole human saliva [1]) | Hydrogen sulfide in headspace of salivary inoculum, Mean (Whole human saliva [2]) | Microbial growth as observed by OD610, Mean (Whole human saliva [3]) |
| --- | --- | --- | --- |
| OC[C@@H](O)[C@H](O)[C@@H](O)CO [Example 4, xylitol] | 5.9067 | 2243 ppb | 0.4182 |
| O=C([O-])CC(O)(CC(=O)[O-])C(=O)[O-].O=C([O-])CC(O)(CC(=O)[O-])C(=O)[O-].[Zn+2].[Zn+2].[Zn+2] [Example 5, zinc citrate] | 6.5948 | 21.86 ppb | 0.1407 |
